For three compounds, IC50 results are on record in patent US8088777B2, “Urea derivative” (Shionogi & Co., Ltd., priority 2006, dated 2012).

For this assay, the target named is T1, human NPY Y5 receptor (Homo sapiens, UniProt Q15761).
T1 construct: expressed in transfected cells; membranes used
T1 sequence (Q15761 1-445): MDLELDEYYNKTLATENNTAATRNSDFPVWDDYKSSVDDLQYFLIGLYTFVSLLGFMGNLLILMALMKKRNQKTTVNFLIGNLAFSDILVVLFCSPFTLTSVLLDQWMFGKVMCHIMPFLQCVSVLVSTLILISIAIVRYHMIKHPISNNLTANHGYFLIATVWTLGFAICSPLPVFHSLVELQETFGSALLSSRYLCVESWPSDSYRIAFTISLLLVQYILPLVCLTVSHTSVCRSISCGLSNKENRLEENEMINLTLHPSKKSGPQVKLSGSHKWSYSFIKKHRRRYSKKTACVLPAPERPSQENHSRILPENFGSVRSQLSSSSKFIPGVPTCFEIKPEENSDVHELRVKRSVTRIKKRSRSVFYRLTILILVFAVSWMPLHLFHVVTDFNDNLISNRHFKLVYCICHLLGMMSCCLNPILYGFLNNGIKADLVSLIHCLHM
In words: Affinity for NPY Y5 receptor: inhibition of [125I] peptide YY binding to membranes of CHO cells expressing NPY Y5 receptor. The settings on record: [125I] peptide YY 60 pM, 25° C., 2 hours, read-out: 50% inhibitory concentration of the test compound against the specific peptide YY binding (IC50 value). An excerpt:
cDNA sequence encoding a human NPY Y5 receptor (WO96/16542) was cloned in a vector pME18S (Takebe et al. Mol. Cell. Biol. 8, 8957). The obtained expression vector was transfected into CHO cells as a host by using Lipofect AMINE reagent (Trademark, Gibco BRL Co., Ltd.) according to the instruction […] manual. The cells that stably express NPY Y5 receptor were obtained.
The membranes prepared from the CHO cells expressing NPY Y5 receptor, the compound of the present invention and 30,000 cpm [^125I] peptide YY (60 pM of final concentration: Amersham) were incubated in the assay buffer (20 mM HEPES-Hanks buffer containing 0.1% bovine serum albumin, pH 7.4) at 25° C. for 2 hours, and then the membrane was collected by filtering the mixture through a glassfilter (GF/C) presoaked with 1% polyethyleneimine. After washing with 50 mM Tris-HCl buffer (pH 7.4), radioactivity retained on the filters was quantified with a gamma counter. Nonspecific binding was defined as the amount of radioactivity bound to the membranes after incubation in the presence of 200 nM of peptide YY. The 50% inhibitory concentration of the test compound against the specific peptide YY binding (IC50 value) was calculated (Inui, A. et al. Endocrinology 131, 2090-2096 (1992)).
On to `CCS(=O)(=O)N(C)C1CCC(N(C)C(=O)Nc2ccc3c(c2)oc(=O)n3C(C)C)CC1` (stereo not drawn) [Example II-2], for which the IC50 came to 1.85 nM.
Under `CC(C)n1c(=O)oc2cc(NC(=O)N[C@H]3CC[C@H](NS(=O)(=O)C(C)(C)C)CC3)ccc21` [Example II-12] stands 0.55 nM; under `CC(C)n1c(=O)oc2cc(NC(=O)N[C@H]3CC[C@H](NS(=O)(=O)C(C)C)CC3)ccc21` [Example II-14], 0.32 nM.
